The values that follow come from patent US20220143148A1, “COMPOSITIONS AND METHODS FOR MODULATING CGRP SIGNALING TO REGULATE INTESTINAL INNATE LYMPHOID CELLS” (The Broad Institute, Inc., priority 2019, published 2022).

The test system of one experiment is lung ILC2s. To be noted: co-stimulated with IL-33; cited from earlier work.
A further experiment has as its system intestinal KLRG1+ ILC2s. Kind of experiment: Bulk ATAC-seq of intestinal KLRG1+ ILC2s stimulated in vitro. Type of experiment: cell-based, mouse. To be noted: α-CGRP stimulation alone. Here is the method:
ILC2 culture. Sort-purified intestinal KLRG1^+ ILC2s were incubated in RPMI supplemented with 10% FCS, 10 mM Hepes, 1 mM sodium pyruvate, 10% FBS, 80 μm 2-mercaptoethanol, 2 mM glutamine, 100 U/ml penicillin, […] streptomycin, 100 ng/ml IL-2 and 100 ng/ml IL-7 in 96-well round bottom plate at 37° C. and 5% CO2. If indicated, the culture was supplemented with 100 ng/ml IL-25. For the in vitro proliferation assay, cells from different mice were pooled and labeled with CellTrace Violet, and then cultured at 1,000-1,500 cells per well with 10 μg/ml α-CGRP for 60 hours. When indicated, 10 μM forskolin or 1 μM SQ 22, 536 in DMSO was supplied and cells were cultured for 40 hours. […]
Bulk ATAC-seq. […] The library was amplified for 11 cycles, purified with Zymo DNA clean (Zymo Research), and sequenced on an Illumina Next-seq platform using 75 cycle Nextseq 500 high output V2 kit (Read 1: 38 cycles, Index 1: 8 cycles, Index 2: 8 cycles, Read 2: 38 cycles).
The reads were trimmed and aligned to the mouse reference genome (mm9) with Bowtie2 aligner (Langmead and Salzberg, 2012) using the option-X2000. Then, Applicants discarded reads with alignment quality<Q30, improperly paired, mapped to the unmapped contigs, chrY, and mitochondria. […] Peak summits were extended by ±250 bp, and fragment counts in peaks were calculated using chromVAR (Schep et al., 2017) (version: 1.1.1). […]

The test system of a further experiment is KLRG1+ ILC2s. As to the kind of experiment: In vitro proliferation assay (CellTrace Violet, flow cytometry). The note with it: IL-25 plus α-CGRP, 60 hours; P=0.01, t-test. Type of experiment: cell-based, mouse. Here is the method:
Flow cytometry and cell sorting. Cells were washed and suspended in MACS buffer (pH 7.4; PBS plus 2% FCS and 2 mM EDTA). Nonspecific antibody binding was blocked with CD16/CD32 (2.4G2) antibody for 15 min on ice. Cells were then stained with antibody cocktails for 30 min at 4° C. Lineage-positive cells were excluded for analyzing ILCs by staining for CD3ε (145-2C11), CD5 (53-7.3), CD19 (6D5), CD11b (M1/70), CD8 (53-6.7), CD11c (N418), Gr-1 (RB6-8C5), TCRγδ (eBioGL3 (GL-3, GL3)) and TCRβ (H57-597). To analyze mast cells, lineage-positive cells were excluded by staining for CD3ε, CD5, CD19, CD11c and SiglecF (E50-2440). For surface staining, antibodies for KLRG1 (2F1), CD45 (30-F11), CD127 (A7R34), CCR6 (29-2L17), NKp46 (29A1.4), CD90.2 (53-2.1), FcεRI (Mar-1), IgD (11-26c.2a) and ST2 (DJ8) were used. For intracellular staining, cells were fixed and permeabilized using the Foxp3 transcription factor staining buffer set, followed by staining with anti-GATA-3 (TWAJ) or anti-RORγt (B2D) antibodies. Dead cells were excluded with 7-AAD or Fixable Viability Dye eFluor 780. Flow cytometry was performed on Cytoflex (Beckman Coulter) and analyzed with FlowJo software. Sorting was performed with the SH800S Cell Sorter (Sony Biotechnology).
ILC2 culture. […]
On the technique in general: Flow cytometry measures light scatter and fluorescence of single cells or particles in a stream.

With “α-CGRP: neuropeptide alpha-calcitonin gene-related peptide, encoded by exon 5 of Calca; administered as peptide”, the “IL-5 expression in lung ILC2s” value with lung ILC2s is given as “increases”. Also, in the experiment on intestinal KLRG1+ ILC2s, the “regions of increased chromatin accessibility” value is “enriched for gene loci involved in the adenylate cyclase pathway”. The IL-25-induced cell division result in the experiment with KLRG1+ ILC2s is given as “significantly suppressed”.
